Results taken from BigSolDB 2.1.

Cl.c1ccc([C@H]2CN3CCSC3=N2)cc1
solubility (mole fraction) (in DMSO, 293.15 K): 0.0117 | solubility (mole fraction) (in DMSO, 298.15 K): 0.0129 | solubility (mole fraction) (in DMSO, 303.15 K): 0.014 | solubility (mole fraction) (in DMSO, 308.15 K): 0.0157 | solubility (mole fraction) (in DMSO, 313.15 K): 0.0173 | solubility (mole fraction) (in DMSO, 318.15 K): 0.0193 | solubility (mole fraction) (in DMSO, 323.15 K): 0.0218 | solubility (mole fraction) (in DMSO, 328.15 K): 0.0237 | solubility (mole fraction) (in DMSO, 333.15 K): 0.0265 | solubility (mole fraction) (in ethanol, 283.15 K): 0.00753 | solubility (mole fraction) (in ethanol, 288.15 K): 0.00881 | solubility (mole fraction) (in ethanol, 293.15 K): 0.0101 | solubility (mole fraction) (in ethanol, 298.15 K): 0.0119 | solubility (mole fraction) (in ethanol, 303.15 K): 0.0153 | solubility (mole fraction) (in ethanol, 308.15 K): 0.0178 | solubility (mole fraction) (in ethanol, 313.15 K): 0.0201 | solubility (mole fraction) (in ethanol, 318.15 K): 0.0244 | solubility (mole fraction) (in ethanol, 323.15 K): 0.0289 | solubility (mole fraction) (in isobutanol, 283.15 K): 0.000869 | solubility (mole fraction) (in isobutanol, 288.15 K): 0.00131 | solubility (mole fraction) (in isobutanol, 293.15 K): 0.00182 | solubility (mole fraction) (in isobutanol, 298.15 K): 0.00247 | solubility (mole fraction) (in isobutanol, 303.15 K): 0.00334 | solubility (mole fraction) (in isobutanol, 308.15 K): 0.00447 | solubility (mole fraction) (in isobutanol, 313.15 K): 0.00577 | solubility (mole fraction) (in isobutanol, 318.15 K): 0.00747 | solubility (mole fraction) (in isobutanol, 323.15 K): 0.00937 | solubility (mole fraction) (in isopentanol, 283.15 K): 0.00108 | solubility (mole fraction) (in isopentanol, 288.15 K): 0.00134 | solubility (mole fraction) (in isopentanol, 293.15 K): 0.00182 | solubility (mole fraction) (in isopentanol, 298.15 K): 0.00234 | solubility (mole fraction) (in isopentanol, 303.15 K): 0.00287 | solubility (mole fraction) (in isopentanol, 308.15 K): 0.00402 | solubility (mole fraction) (in isopentanol, 313.15 K): 0.00542 | solubility (mole fraction) (in isopentanol, 318.15 K): 0.00676 | solubility (mole fraction) (in isopentanol, 323.15 K): 0.00873 | solubility (mole fraction) (in isopropanol, 283.15 K): 0.000856 | solubility (mole fraction) (in isopropanol, 288.15 K): 0.00104 | solubility (mole fraction) (in isopropanol, 293.15 K): 0.00138 | solubility (mole fraction) (in isopropanol, 298.15 K): 0.00179 | solubility (mole fraction) (in isopropanol, 303.15 K): 0.00225 | solubility (mole fraction) (in isopropanol, 308.15 K): 0.00275 | solubility (mole fraction) (in isopropanol, 313.15 K): 0.00319 | solubility (mole fraction) (in isopropanol, 318.15 K): 0.00401 | solubility (mole fraction) (in isopropanol, 323.15 K): 0.00475 | solubility (mole fraction) (in methanol, 283.15 K): 0.0298 | solubility (mole fraction) (in methanol, 288.15 K): 0.0357 | solubility (mole fraction) (in methanol, 293.15 K): 0.0429 | solubility (mole fraction) (in methanol, 298.15 K): 0.0513 | solubility (mole fraction) (in methanol, 303.15 K): 0.0595 | solubility (mole fraction) (in methanol, 308.15 K): 0.0696 | solubility (mole fraction) (in methanol, 313.15 K): 0.0816 | solubility (mole fraction) (in methanol, 318.15 K): 0.0955 | solubility (mole fraction) (in methanol, 323.15 K): 0.109 | solubility (mole fraction) (in n-butanol, 283.15 K): 0.00182 | solubility (mole fraction) (in n-butanol, 288.15 K): 0.00236 | solubility (mole fraction) (in n-butanol, 293.15 K): 0.00311 | solubility (mole fraction) (in n-butanol, 298.15 K): 0.00407 | solubility (mole fraction) (in n-butanol, 303.15 K): 0.00542 | solubility (mole fraction) (in n-butanol, 308.15 K): 0.00699 | solubility (mole fraction) (in n-butanol, 313.15 K): 0.00888 | solubility (mole fraction) (in n-butanol, 318.15 K): 0.0111 | solubility (mole fraction) (in n-butanol, 323.15 K): 0.0139 | solubility (mole fraction) (in n-hexanol, 283.15 K): 0.000727 | solubility (mole fraction) (in n-hexanol, 288.15 K): 0.000986 | solubility (mole fraction) (in n-hexanol, 293.15 K): 0.00136 | solubility (mole fraction) (in n-hexanol, 298.15 K): 0.00198 | solubility (mole fraction) (in n-hexanol, 303.15 K): 0.00226 | solubility (mole fraction) (in n-hexanol, 308.15 K): 0.00283 | solubility (mole fraction) (in n-hexanol, 313.15 K): 0.0035 | solubility (mole fraction) (in n-hexanol, 318.15 K): 0.00437 | solubility (mole fraction) (in n-hexanol, 323.15 K): 0.00524 | solubility (mole fraction) (in n-pentanol, 283.15 K): 0.000747 | solubility (mole fraction) (in n-pentanol, 288.15 K): 0.00112 | solubility (mole fraction) (in n-pentanol, 293.15 K): 0.00161 | solubility (mole fraction) (in n-pentanol, 298.15 K): 0.00209 | solubility (mole fraction) (in n-pentanol, 303.15 K): 0.00293 | solubility (mole fraction) (in n-pentanol, 308.15 K): 0.00377 | solubility (mole fraction) (in n-pentanol, 313.15 K): 0.00471 | solubility (mole fraction) (in n-pentanol, 318.15 K): 0.00605 | solubility (mole fraction) (in n-pentanol, 323.15 K): 0.00745 | solubility (mole fraction) (in n-propanol, 283.15 K): 0.00412 | solubility (mole fraction) (in n-propanol, 288.15 K): 0.00492 | solubility (mole fraction) (in n-propanol, 293.15 K): 0.00631 | solubility (mole fraction) (in n-propanol, 298.15 K): 0.00751 | solubility (mole fraction) (in n-propanol, 303.15 K): 0.00903 | solubility (mole fraction) (in n-propanol, 308.15 K): 0.0109 | solubility (mole fraction) (in n-propanol, 313.15 K): 0.013 | solubility (mole fraction) (in n-propanol, 318.15 K): 0.0149 | solubility (mole fraction) (in n-propanol, 323.15 K): 0.0169 | solubility (mole fraction) (in sec-butanol, 283.15 K): 0.000587 | solubility (mole fraction) (in sec-butanol, 288.15 K): 0.000722 | solubility (mole fraction) (in sec-butanol, 293.15 K): 0.000867 | solubility (mole fraction) (in sec-butanol, 298.15 K): 0.00105 | solubility (mole fraction) (in sec-butanol, 303.15 K): 0.00123 | solubility (mole fraction) (in sec-butanol, 308.15 K): 0.00148 | solubility (mole fraction) (in sec-butanol, 313.15 K): 0.00177 | solubility (mole fraction) (in sec-butanol, 318.15 K): 0.00213 | solubility (mole fraction) (in sec-butanol, 323.15 K): 0.00252 | solubility (mole fraction) (in water, 283.15 K): 0.0664 | solubility (mole fraction) (in water, 285.65 K): 0.0718 | solubility (mole fraction) (in water, 288.15 K): 0.0769 | solubility (mole fraction) (in water, 290.65 K): 0.0825 | solubility (mole fraction) (in water, 293.15 K): 0.0879 | solubility (mole fraction) (in water, 295.65 K): 0.0943 | solubility (mole fraction) (in water, 298.15 K): 0.101 | solubility (mole fraction) (in water, 300.65 K): 0.106 | solubility (mole fraction) (in water, 303.15 K): 0.113 | solubility (mole fraction) (in water, 305.65 K): 0.12 | solubility (mole fraction) (in water, 308.15 K): 0.127
